Each structure is given as a SMILES string. Read-outs that look alike come from different tables or passages of the source.

The format of the data set is in vitro ADME, hairless mouse (Outbred Nude mouse). The following applies: for skin permeation rate: 50% w/w drug loading. How it is done: An in vitro excised hairless mouse skin/modified Franz Diffusion Cell model was used to evaluate skin permeability of neat MDL 73,745, the title compound of Example 1, and permeation profile of MDL 73,745 from various prototype transdermal delivery systems. Prototype transdermal delivery systems containing MDL 73,745 were prepared in various acrylic, silastic, ethylene vinyl acetate copolymer, and rubber based pressure sensitive adhesives and evaluated in the in vitro skin permeation cell model.
In vitro skin permeation model: For this study an in vitro finite-dose glass diffusion cell (modified Franz Diffusion Cell)/freshly excised hairless mouse skin model was used. The diffusion consists of two parts: (i) a receptor compartment which is an upright reservoir jacketed by a glass chamber on the outside. Experiments were conducted at 37° C. by circulating thermostatically controlled water at 37° C. in this jacket and (ii) donor cap, which is clamped together with the receptor compartment with a metal clamp. A piece of skin/(transdermal formulation) is sandwiched between the donor and the receptor compartments and clamped together. Sampling from the receptor compartment is taken at predetermined time intervals through the sampling port.
Hairless mouse: Outbred Nude mouse {CRL NU/NU (CD1) BR, 6-8 weeks old, male} from Charles River, Mass.
Excised skin: Immediately following sacrifice by CO2 gas, a portion (3.5×3.5 cm) of the full-thickness abdominal skin was carefully excised from the hairless mouse. The dermal side of the skin was carefully cleaned of any adhering subcutaneous tissue and/or blood vessels. Extreme care was taken not to scratch or damage the stratum corneum. Before mounting onto the diffusion cell, each piece of skin was carefully inspected to insure that the skin was not damaged.
Dermal elution media: A 5% solution of polyethylene glycol 20 Oleyl ether (Trycol®, Emery) in 0.9% sodium chloride was used as the receptor medium for the modified Franz Diffusion Cells. […] Temperature of the dermal elution media was maintained at 37° C. using a thermostated constant temperature circulating water bath.
Skin permeation profile from neat MDL 73,745 and from Prototype formulations: Full-thickness skin, prepared freshly as outlined above, was mounted in a modified Franz Diffusion Cell with the stratum corneum side facing upward. To study the permeation profile of neat MDL 73,745, 50 μl of MDL 73,745 was uniformly applied onto the stratum corneum. The donor cap was placed over the skin and the whole assembly was then securely clamped together. The donor cap was covered with a piece of aluminum foil to reduce the volatilization of MDL 73,745. To evaluate the skin permeation profile of MDL 73,745 from a prototype transdermal formulation, a unit of prototype transdermal system (about 4.9 cm^2 circular) containing MDL 73,745 was placed onto the skin with the drug releasing side in intimate contact with the stratum corneum (slight pressure was applied to insure good contact). The donor cap was placed over the skin and the whole assembly was then securely clamped together.
Dermal elution medium (5% w/w Trycol® in normal saline) was then introduced into the receptor compartment through the sampling port. At predetermined time intervals, the entire volume of the receptor solution was withdrawn and immediately replaced with the same volume of fresh, drug free dermal elution medium (5% w/w Trycol® in normal saline), maintained at 37° C. The concentration of MDL 73,745 was determined by a sensitive HPLC method described under Analytical Method section below.
Analytical Method: An automated high performance liquid chromatograph equipped with a gradient pump (Waters Model 600E), autoinjector/sampler (Waters, Model 715 WISP), and a variable wavelength UV detector (Waters, Model 490) was used. The autoinjector/sampler was maintained at 2° C. to reduce possible evaporation/degradation of MDL 73,745 in the sample. […]

Turning to `C[Si](C)(C)c1cccc(C(=O)C(F)(F)F)c1` [MDL 73,745, 2,2,2-Trifluoro-1-(3-trimethylsilylphenyl) ethanone], the “rate of transdermal delivery” value was 13.01 μg/cm^2 /hr (3M acrylic adhesive #9871, 50% w/w drug loading); 21.04 μg/cm^2 /hr (3M acrylic adhesive #9871, 60% w/w drug loading); 12.92 μg/cm^2 /hr (DuroTak 72-9718 rubber based PSA, 20% w/w drug loading); 33.86 μg/cm^2 /hr (Eva-Tak 72-9660 prototype containing 50% drug); 20.59 μg/cm^2 /hr (Eva-Tak 72-9660 prototype containing 60% drug); 19.18 μg/cm^2 /hr (Nacor 38-4515 prototype containing 50% w/w drug). Also, the “rate of transdermal delivery” value (neat MDL 73,745, 50 μl on stratum corneum) is 208.21 μg/cm^2 /hr. The transdermal delivery profile result was “constant, zero-order profile” (3M acrylic adhesive #9871 prototypes) and “controlled, zero-order fashion” (Eva-Tak 72-9660 prototypes, throughout duration of patch application). Moreover, the skin permeation rate by setting is: (prototype in Gelva 737) 12.95 μg/cm^2 /hr; (prototype in Gelva 788) 8.63 μg/cm^2 /hr. Also, for the setting “DuroTak 72-9718 rubber based PSA prototypes”, the skin permeation profile result is given as “constant, zero-order profile”. In addition, under “neat MDL 73,745”, the “transport profile through skin” value is on record as “controlled zero order fashion”. In addition, the “period of controlled, zero-order transdermal delivery” value (prototypes in various acrylic PSA) is reported as “at least 24 hours”.

For the origin of these results see patent US5693668A, “Acetylcholinesterase inhibitors” (priority 1989, dated 1997).
